US20220213092A1, “BICYCLIC PYRAZOLE BRUTON'S TYROSINE KINASE INHIBITORS” (AbbVie Inc., priority 2020, published 2022)

How the values were obtained:
[1] = target: T1, BTK (Homo sapiens, UniProt Q06187); assay: BTK kinase electrophoretic mobility shift assay (MSA); format: biochemical; conditions: 50 μM ATP, 0.5 nM BTK enzyme (Nanosyn-293HEK, WT), 3 hours at 25° C.; all examples except 50, 51, 62 and 63; read-out: BTK IC50
T1 construct: purchased Nanosyn, Santa Clara, Calif; host or cells: 293HEK
T1 sequence (Q06187 whole entry): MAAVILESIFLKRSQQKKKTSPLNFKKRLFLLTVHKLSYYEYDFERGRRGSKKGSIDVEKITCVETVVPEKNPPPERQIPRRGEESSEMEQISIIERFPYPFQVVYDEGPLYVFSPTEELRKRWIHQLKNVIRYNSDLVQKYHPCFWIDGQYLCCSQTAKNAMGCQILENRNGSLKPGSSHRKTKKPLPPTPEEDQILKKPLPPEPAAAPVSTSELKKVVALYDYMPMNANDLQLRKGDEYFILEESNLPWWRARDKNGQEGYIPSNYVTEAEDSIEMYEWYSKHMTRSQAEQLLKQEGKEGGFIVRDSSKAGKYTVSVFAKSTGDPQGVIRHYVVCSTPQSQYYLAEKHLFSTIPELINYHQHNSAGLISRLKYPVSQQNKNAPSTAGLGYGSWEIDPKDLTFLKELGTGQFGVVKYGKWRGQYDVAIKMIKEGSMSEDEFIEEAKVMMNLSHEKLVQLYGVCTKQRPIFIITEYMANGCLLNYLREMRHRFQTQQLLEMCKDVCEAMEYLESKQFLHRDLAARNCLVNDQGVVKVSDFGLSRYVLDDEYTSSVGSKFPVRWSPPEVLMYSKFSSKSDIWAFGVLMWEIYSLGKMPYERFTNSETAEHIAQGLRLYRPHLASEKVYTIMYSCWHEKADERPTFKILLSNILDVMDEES
Procedure: Kinase activity, unless otherwise indicated, was measured in vitro using an electrophoretic mobility shift assay (MSA). The phosphorylation of a peptide substrate by BTK and other kinases was measured. The kinase reactions were assembled in a total volume of 25 μL per well in 384 well plates. The following was added to each well: compound buffer (or control); enzyme buffer; and substrate buffer, as further described below.
The terminated reactions were analyzed using a 12 channel LABCHIP® 3000 microfluidic detection instrument (available from Caliper Life Sciences, Waltham, Mass.). […] Change in the relative fluorescence intensity of the substrate and product peaks was the parameter measured, reflecting enzyme activity. In the presence of an inhibitor, the ratio between product and substrate was altered. The signal of the product decreased, while the signal of the substrate increased. Capillary electrophoregrams (RDA acquisition files) were analyzed using HTS Well Analyzer software (available from Caliper Life Sciences, Waltham, Mass.).
Activity in each sample was determined as the product to sum ratio (PSR): P/(S+P), where P was the peak height of the product peptide and S was the peak height of the substrate peptide. For each compound, enzyme activity was measured at various concentrations (12 concentrations of compound spaced by 3× dilution intervals). Negative control samples (00 inhibition in the absence of inhibitor) and positive control samples (10000 inhibition, in the presence of 20 mM EDTA) were assembled in replicates of four and were used to calculate 00 inhibition values for each inhibitor at each concentration. Percent inhibition (Pinh) was determined using following equation: Pinh=(PSR0%−PSRinh)/(PSR0%−PSR100%)*100, where PSRinh was the product sum ratio in the presence of inhibitor, PSR0% was the average product sum ratio in the absence of inhibitor and PSR100% was the average product sum ratio in 100%−inhibition control samples.
The IC50 values of inhibitors were determined by 4 parameter sigmoidal dose response model fitting of the inhibition curves (Pinh versus inhibitor concentration) using XLfit® 4 software (available from IDBS, Boston, Mass.).

[2] = target: T2, Phosphorylation of Y223 of BTK (Homo sapiens, UniProt Q06187); assay: Whole blood compound screening, phosphorylation of Y223 site of BTK (MSD assay); format: cell-based; conditions: healthy human whole blood, 2 hours at 37° C., 3 separate donors; read-out: WB BTK-pY223 EC50
T2 construct: host or cells: healthy human whole blood, 3 donors
T2 sequence (Q06187 whole entry): as above
Procedure: Healthy human whole blood (WB) was collected from […]™ Technologies or […]® in sodium heparinized tubes. Whole blood was stored at ambient temperature to avoid coagulation. Each compound was tested in 3 separate donors. Compound stock solutions (10 mM) were used to generate dose titration (8 concentrations, starting concentration 10 μM, 1:4 dilution) in appropriate volume of dimethyl sulfoxide (0.2%). Whole blood was incubated with compounds in 96-well plates for 2 hours in tissue culture incubators at 37° C. under a 5% CO2 atmosphere. The whole blood was lysed in equal volume of lysis buffer (Cell Signaling Technology®, Danvers, Mass.) containing complete protease inhibitor tablet, PhosSTOP™ tablet, sodium orthovanadate and sodium fluoride and phenylmethanesulfonyl fluoride solution. The lysed whole blood was then frozen at −80° C. for overnight.
Phosphorylation of Y223 of BTK was measured using an MSD assay (Meso Scale Diagnostics, LLC, Rockville, Md.). The thawed lysed whole blood was incubated with the capturing antibody rabbit anti-human BTK (D3H5) (Cell Signaling Technology, Danvers, Mass.) at 4° C. overnight. After washing out the unbound samples, the detection antibody biotinylated rabbit anti-pY223-BTK(D9T6H) (Cell Signaling Technology®, Danvers, Mass.) was added to the plates. After washing out the unbound antibodies, SULFO-TAG Streptavidin (Meso Scale Diagnostics, LLC, Rockville, Md.) was used for detection on Meso Sector S600 (Meso Scale Diagnostics, LLC, Rockville, Md.).
The EC50 values were determined using software from Dotmatics. The activity of exemplary compounds is illustrated below.

| SMILES | IC50 [1] | EC50 [2] |
| --- | --- | --- |
| C=CC(=O)N1CCN([C@@H]2CCNc3c2nn(-c2ccc(Oc4ccccc4OC)cc2)c3C(N)=O)CC1 [Example 93, (7R)-2-[4-(2-methoxyphenoxy)phenyl]-7-[4-(prop-2-enoyl)piperazin-1-yl]-4,5,6,7-tetrahydro-2H-pyrazolo[4,3-b]pyridine-3-carboxamide] | 5.09 nM | 400 nM |
| C=CC(=O)N1CCN([C@H]2CCNc3c2nn(-c2ccc(Oc4cccc(OC(F)(F)F)c4)cc2)c3C(N)=O)CC1 [Example 101, (7S)-7-[4-(prop-2-enoyl)piperazin-1-yl]-2-{4-[3-(trifluoromethoxy)phenoxy]phenyl}-4,5,6,7-tetrahydro-2H-pyrazolo[4,3-b]pyridine-3-carboxamide] | 64.1 nM |  |
| C=CC(=O)N1CCN([C@H]2CCNc3c2nn(-c2ccc(Oc4ccc(OC)cc4)cc2)c3C(N)=O)CC1 [Example 99, (7S)-2-[4-(4-methoxyphenoxy)phenyl]-7-[4-(prop-2-enoyl)piperazin-1-yl]-4,5,6,7-tetrahydro-2H-pyrazolo[4,3-b]pyridine-3-carboxamide] | 136 nM |  |
| CC#CC(=O)N1CCN([C@H]2CCNc3c2nn(-c2ccc(Oc4ccccc4)cc2)c3C(N)=O)CC1 (single isomer, unassigned) [Example 39] | 5.8 nM |  |
| C=CC(=O)N1C[C@H](C)N(C2CCNc3c2nn(-c2ccc(Oc4ccccc4)cc2)c3C(N)=O)C[C@H]1C (stereo partly drawn) [Example 18, 7-[(2S,5R)-2,5-dimethyl-4-(prop-2-enoyl)piperazin-1-yl]-2-(4-phenoxyphenyl)-4,5,6,7-tetrahydro-2H-pyrazolo[4,3-b]pyridine-3-carboxamide] | 678 nM |  |
| C=CC(=O)N1CCC(C2CCNc3c2nn(-c2ccc(Oc4ccccc4)cc2F)c3C(N)=O)CC1 (stereo not drawn) [Example 37, 2-(2-fluoro-4-phenoxyphenyl)-7-[1-(prop-2-enoyl)piperidin-4-yl]-4,5,6,7-tetrahydro-2H-pyrazolo[4,3-b]pyridine-3-carboxamide] | 2.48 nM |  |
| C=CC(=O)N1CCC(C2CCNc3c2nn(-c2ccc(Oc4ccc(Cl)cc4)cc2)c3C(N)=O)CC1 (stereo not drawn) [Example 28, 2-[4-(4-chlorophenoxy)phenyl]-7-[1-(prop-2-enoyl)piperidin-4-yl]-4,5,6,7-tetrahydro-2H-pyrazolo[4,3-b]pyridine-3-carboxamide] | 4.66 nM |  |
| CC#CC(=O)N1CCC(N2CCNc3c2nn(-c2ccc(Oc4ccccc4)cc2)c3C(N)=O)CC1 [Example 19, 7-[1-(but-2-ynoyl)piperidin-4-yl]-2-(4-phenoxyphenyl)-4,5,6,7-tetrahydro-2H-pyrazolo[3,4-b]pyrazine-3-carboxamide] | 8.61 nM |  |
| C=CC(=O)N1CCN(C2CCNc3c2nn(-c2ccc(Oc4ccc(F)cc4F)cc2)c3C(N)=O)CC1 (stereo not drawn) [Example 36, 2-[4-(2,4-difluorophenoxy)phenyl]-7-[4-(prop-2-enoyl)piperazin-1-yl]-4,5,6,7-tetrahydro-2H-pyrazolo[4,3-b]pyridine-3-carboxamide] | 14.2 nM |  |
| C=CC(=O)N1CCN([C@H]2CCNc3c2nn(-c2ccc(Oc4ccccc4C(F)(F)F)cc2)c3C(N)=O)CC1 [Example 61, (7S)-7-[4-(prop-2-enoyl)piperazin-1-yl]-2-{4-[2-(trifluoromethyl)phenoxy]phenyl}-4,5,6,7-tetrahydro-2H-pyrazolo[4,3-b]pyridine-3-carboxamide] | 27.2 nM |  |
| CC#CC(=O)N1CCN([C@@H]2CCNc3c2nn(-c2ccc(Oc4ccccc4)cc2)c3C(N)=O)CC1 (single isomer, unassigned) [Example 40] | 48.6 nM |  |
| C=CC(=O)N1CCC(C2CCNc3c2nn(-c2ccc(Oc4ccc(F)cc4F)cc2)c3C(N)=O)CC1 (stereo not drawn) [Example 13, 2-[4-(2,4-difluorophenoxy)phenyl]-7-[1-(prop-2-enoyl)piperidin-4-yl]-4,5,6,7-tetrahydro-2H-pyrazolo[4,3-b]pyridine-3-carboxamide] | 1.84 nM |  |
| C=CC(=O)N1CCN(C2CCNc3c2nn(-c2ccc(Oc4ccccc4)cc2)c3C(N)=O)CC12CCC2 (stereo not drawn) [Example 26, 2-(4-phenoxyphenyl)-7-[5-(prop-2-enoyl)-5,8-diazaspiro[3.5]nonan-8-yl]-4,5,6,7-tetrahydro-2H-pyrazolo[4,3-b]pyridine-3-carboxamide] | 2.16 nM |  |
| C=CC(=O)N1CCC(C2CCNc3c2nn(-c2ccc(Oc4cccc(C(F)(F)F)c4)cc2)c3C(N)=O)CC1 (stereo not drawn) [Example 23, 7-[1-(prop-2-enoyl)piperidin-4-yl]-2-{4-[3-(trifluoromethyl)phenoxy]phenyl}-4,5,6,7-tetrahydro-2H-pyrazolo[4,3-b]pyridine-3-carboxamide] | 2.03 nM |  |
| C=CC(=O)N1CC2CC(C1)N2C1CCNc2c1nn(-c1ccc(Oc3ccccc3)cc1)c2C(N)=O (stereo not drawn) [Example 41, 2-(4-phenoxyphenyl)-7-[3-(prop-2-enoyl)-3,6-diazabicyclo[3.1.1]heptan-6-yl]-4,5,6,7-tetrahydro-2H-pyrazolo[4,3-b]pyridine-3-carboxamide] | 15.8 nM |  |
| C=CC(=O)N1C[C@H]2C[C@@H]1CN2C1CCNc2c1nn(-c1ccc(Oc3ccccc3)cc1)c2C(N)=O (stereo partly drawn) [Example 33, 2-(4-phenoxyphenyl)-7-[(1R,4R)-5-(prop-2-enoyl)-2,5-diazabicyclo[2.2.1]heptan-2-yl]-4,5,6,7-tetrahydro-2H-pyrazolo[4,3-b]pyridine-3-carboxamide] | 24.8 nM |  |
| C=CC(=O)N1CCC[C@H]([C@@H]2CCNc3c2nn(-c2ccc(Oc4ccccc4)cc2)c3C(N)=O)C1 (racemic) [Example 8, (7SR)-2-(4-phenoxyphenyl)-7-[(3RS)-1-(prop-2-enoyl)piperidin-3-yl]-4,5,6,7-tetrahydro-2H-pyrazolo[4,3-b]pyridine-3-carboxamide] | 4.7 nM |  |
| C=CC(=O)N1CCN(C2CCNc3c2nn(-c2ccc(Oc4ccccc4)cc2Cl)c3C(N)=O)CC1 (stereo not drawn) [Example 52, 2-(2-chloro-4-phenoxyphenyl)-7-[4-(prop-2-enoyl)piperazin-1-yl]-4,5,6,7-tetrahydro-2H-pyrazolo[4,3-b]pyridine-3-carboxamide] | 33.3 nM |  |
| C=CC(=O)N1CCN(C2CCNc3c2nn(-c2ccc(Oc4ccccc4F)cc2)c3C(N)=O)CC1 (stereo not drawn) [Example 38, 2-[4-(2-fluorophenoxy)phenyl]-7-[4-(prop-2-enoyl)piperazin-1-yl]-4,5,6,7-tetrahydro-2H-pyrazolo[4,3-b]pyridine-3-carboxamide] | 3.58 nM |  |
| C=CC(=O)N1CCN(C2CCNc3c2nn(-c2ccc(Oc4ccc(F)cc4)cc2)c3C(N)=O)CC1 (stereo not drawn) [Example 56, 2-[4-(4-fluorophenoxy)phenyl]-7-[4-(prop-2-enoyl)piperazin-1-yl]-4,5,6,7-tetrahydro-2H-pyrazolo[4,3-b]pyridine-3-carboxamide] | 14.8 nM |  |
| C=CC(=O)N1CCN([C@H]2CCNc3c2nn(-c2ccc(Oc4ccccc4OC)cc2)c3C(N)=O)CC1 [Example 97, (7S)-2-[4-(2-methoxyphenoxy)phenyl]-7-[4-(prop-2-enoyl)piperazin-1-yl]-4,5,6,7-tetrahydro-2H-pyrazolo[4,3-b]pyridine-3-carboxamide] | 120 nM |  |
| C=CC(=O)N1CCC(C2CCNc3c2nn(-c2ccc(Oc4ccc(OC)cc4)cc2)c3C(N)=O)CC1 (stereo not drawn) [Example 17, 2-[4-(4-methoxyphenoxy)phenyl]-7-[1-(prop-2-enoyl)piperidin-4-yl]-4,5,6,7-tetrahydro-2H-pyrazolo[4,3-b]pyridine-3-carboxamide] | 2.72 nM |  |
| C=CC(=O)N1CCC(C2CCNc3c2nn(-c2ccc(Oc4ccccc4)cc2OC)c3C(N)=O)CC1 (stereo not drawn) [Example 14, 2-(2-methoxy-4-phenoxyphenyl)-7-[1-(prop-2-enoyl)piperidin-4-yl]-4,5,6,7-tetrahydro-2H-pyrazolo[4,3-b]pyridine-3-carboxamide] | 37.5 nM |  |
